Experiments:
Type in all cases: biochemical
Conditions in all cases: no reducing agent
F V = molecular target: T1, F V (Homo sapiens, UniProt P12259); experiment: Coagulation factor V activity in plasma after reducing agent + iodoacetic acid
T1 construct: from tissue; host or cells: human citrated blood plasma
Procedure: (§1) Human blood with anti-coagulating agent (9 parts blood+1 part 3.8% trisodium citrate) is centrifuged and the following tests with plasma were carried out:
(§2) The plasma is divided into 8 ml portions, which are preheated at 37° C. for 5 min. DTT is added in different concentrations, see table 1 below, and is incubated for 5 min. at 37° C. Then iodoacetic acid, 3 mol per mol DTT, is added, and incubation takes place for 15 min. at 37° C. The plasma samples are distributed in portions of about 0.2 ml and are immediately frozen at -70° C. Testing of different coagulation factors is made in known manner.
(§3) The plasma is divided into 8 ml portions, which are preheated at 37° C. for 5 min. DTE is added in different concentrations (see table 2), and is incubated for 5 minutes at 37° C. Then, iodoacetic acid (3 mol per mol DTE) is added and incubation is carried out for 15 minutes at 37° C. The plasma samples are distributed in portions of about 0.2 ml and are immediately frozen at -70° C. Testing of different coagulation factors is made in a manner known per se.
as §3, with “minutes. Lipoic acid” for “min. DTE”, “3),” for “2),”, “lipoic acid)” for “DTE)”
as §3, with “minutes. Mercaptoethanol” for “min. DTE”, “4),” for “2),”, “mercaptoethanol)” for “DTE)”
as §3, with “minutes. Potassium borohydride” for “min. DTE”, “5,” for “2),”, “potassium borohydride)” for “DTE)”

F II = molecular target: T2, F II (Homo sapiens, UniProt P00734); experiment: Coagulation factor II activity in plasma after reducing agent + iodoacetic acid
T2 construct: from tissue; host or cells: human citrated blood plasma
Procedure: as §1, §2, §3
as §3, with “minutes. Lipoic acid” for “min. DTE”, “3),” for “2),”, “lipoic acid)” for “DTE)”
as §3, with “minutes. Mercaptoethanol” for “min. DTE”, “4),” for “2),”, “mercaptoethanol)” for “DTE)”
as §3, with “minutes. Potassium borohydride” for “min. DTE”, “5,” for “2),”, “potassium borohydride)” for “DTE)”

F X = molecular target: T3, F X (Homo sapiens, UniProt P00742); experiment: Coagulation factor X activity in plasma after reducing agent + iodoacetic acid
T3 construct: from tissue; host or cells: human citrated blood plasma
T3 sequence (P00742 235-488 limits assumed): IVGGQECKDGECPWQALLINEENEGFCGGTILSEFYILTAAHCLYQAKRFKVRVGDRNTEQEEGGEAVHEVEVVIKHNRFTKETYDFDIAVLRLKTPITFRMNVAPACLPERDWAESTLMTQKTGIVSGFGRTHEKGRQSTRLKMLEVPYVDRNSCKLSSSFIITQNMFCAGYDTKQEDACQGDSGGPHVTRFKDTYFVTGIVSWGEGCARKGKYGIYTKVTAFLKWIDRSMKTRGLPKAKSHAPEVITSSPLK
T3 sequence (P00742 41-179 limits assumed): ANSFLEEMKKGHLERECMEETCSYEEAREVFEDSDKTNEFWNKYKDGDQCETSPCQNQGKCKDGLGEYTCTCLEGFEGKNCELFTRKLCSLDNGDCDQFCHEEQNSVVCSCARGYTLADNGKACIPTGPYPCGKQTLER
Procedure: as §1, §2, §3
as §3, with “minutes. Lipoic acid” for “min. DTE”, “3),” for “2),”, “lipoic acid)” for “DTE)”
as §3, with “minutes. Mercaptoethanol” for “min. DTE”, “4),” for “2),”, “mercaptoethanol)” for “DTE)”
as §3, with “minutes. Potassium borohydride” for “min. DTE”, “5,” for “2),”, “potassium borohydride)” for “DTE)”

[1] = Table 1 B: control plasma + iodoacetic acid, same amount as in F
[2] = Table 2 B: control plasma + iodoacetic acid, same amount as in E
[3] = Table 3 B: control plasma + iodoacetic acid, same amount as in E
[4] = Table 4 B: control plasma + iodoacetic acid, same amount as in D
[5] = Table 5 B: control plasma + iodoacetic acid, same amount as in D

T1 sequence (P12259 29-2224): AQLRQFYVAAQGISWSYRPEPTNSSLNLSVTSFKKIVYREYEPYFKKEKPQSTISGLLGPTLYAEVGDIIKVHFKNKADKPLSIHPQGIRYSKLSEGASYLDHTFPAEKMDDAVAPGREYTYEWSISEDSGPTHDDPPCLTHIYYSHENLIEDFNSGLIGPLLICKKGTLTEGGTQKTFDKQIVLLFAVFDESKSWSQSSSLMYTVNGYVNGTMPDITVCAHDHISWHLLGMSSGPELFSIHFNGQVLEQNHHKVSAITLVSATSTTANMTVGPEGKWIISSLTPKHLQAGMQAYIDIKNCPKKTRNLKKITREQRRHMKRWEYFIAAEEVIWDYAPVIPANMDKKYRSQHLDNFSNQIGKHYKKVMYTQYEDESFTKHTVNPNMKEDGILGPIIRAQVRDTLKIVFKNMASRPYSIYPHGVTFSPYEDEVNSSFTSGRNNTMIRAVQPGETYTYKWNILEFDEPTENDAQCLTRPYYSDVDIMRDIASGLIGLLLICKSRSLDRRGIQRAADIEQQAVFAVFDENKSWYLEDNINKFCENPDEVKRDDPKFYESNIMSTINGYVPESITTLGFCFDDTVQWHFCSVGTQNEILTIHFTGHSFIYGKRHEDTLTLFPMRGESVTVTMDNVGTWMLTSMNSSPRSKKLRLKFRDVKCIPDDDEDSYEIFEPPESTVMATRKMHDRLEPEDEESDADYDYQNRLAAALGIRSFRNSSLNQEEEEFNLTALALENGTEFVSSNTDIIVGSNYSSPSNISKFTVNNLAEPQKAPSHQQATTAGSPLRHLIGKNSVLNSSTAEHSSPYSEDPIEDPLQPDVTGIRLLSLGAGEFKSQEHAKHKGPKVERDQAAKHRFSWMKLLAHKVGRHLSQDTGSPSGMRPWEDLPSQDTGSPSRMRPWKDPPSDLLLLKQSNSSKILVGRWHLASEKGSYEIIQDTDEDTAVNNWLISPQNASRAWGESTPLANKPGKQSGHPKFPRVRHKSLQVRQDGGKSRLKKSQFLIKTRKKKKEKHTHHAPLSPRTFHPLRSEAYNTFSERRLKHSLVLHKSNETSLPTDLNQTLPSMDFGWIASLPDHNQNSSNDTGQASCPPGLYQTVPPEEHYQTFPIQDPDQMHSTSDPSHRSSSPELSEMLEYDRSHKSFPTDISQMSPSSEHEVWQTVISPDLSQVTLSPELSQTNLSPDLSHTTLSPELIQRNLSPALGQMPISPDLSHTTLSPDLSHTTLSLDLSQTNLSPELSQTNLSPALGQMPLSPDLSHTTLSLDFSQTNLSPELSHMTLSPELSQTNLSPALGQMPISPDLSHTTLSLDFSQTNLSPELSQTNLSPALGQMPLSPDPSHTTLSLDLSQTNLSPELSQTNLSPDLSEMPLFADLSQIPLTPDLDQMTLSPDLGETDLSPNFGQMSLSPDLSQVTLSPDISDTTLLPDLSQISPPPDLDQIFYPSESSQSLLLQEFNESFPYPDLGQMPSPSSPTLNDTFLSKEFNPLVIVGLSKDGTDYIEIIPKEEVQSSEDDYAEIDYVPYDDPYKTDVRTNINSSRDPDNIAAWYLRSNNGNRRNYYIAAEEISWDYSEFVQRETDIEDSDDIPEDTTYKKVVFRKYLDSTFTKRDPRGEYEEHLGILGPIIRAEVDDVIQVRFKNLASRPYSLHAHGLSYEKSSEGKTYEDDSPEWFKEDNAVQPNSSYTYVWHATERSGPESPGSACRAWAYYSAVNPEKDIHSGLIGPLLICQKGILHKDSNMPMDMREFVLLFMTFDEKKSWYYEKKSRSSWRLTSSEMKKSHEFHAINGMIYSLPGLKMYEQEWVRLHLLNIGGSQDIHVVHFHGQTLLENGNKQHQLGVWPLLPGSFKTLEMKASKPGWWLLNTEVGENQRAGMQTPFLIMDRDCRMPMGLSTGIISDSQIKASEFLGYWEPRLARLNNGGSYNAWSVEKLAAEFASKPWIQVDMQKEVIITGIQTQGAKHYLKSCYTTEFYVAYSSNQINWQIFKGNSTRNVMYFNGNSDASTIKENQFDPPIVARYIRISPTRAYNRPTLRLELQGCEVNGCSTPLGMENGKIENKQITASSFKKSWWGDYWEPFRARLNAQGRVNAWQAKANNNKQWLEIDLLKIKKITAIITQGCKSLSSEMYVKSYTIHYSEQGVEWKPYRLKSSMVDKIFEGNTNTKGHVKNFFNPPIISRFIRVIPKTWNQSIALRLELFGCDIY

O=C(O)CI [iodoacetic acid]
Coagulation factor F V (F V; [1]): 95 % of control
Coagulation factor F V (F V; [2]): 105 % of control
Coagulation factor F V (F V; [3]): 105 % of control
Coagulation factor F V (F V; [4]): 67 % of control
Coagulation factor F V (F V; [5]): 67 % of control
Coagulation factor F II (F II; [1]): 99 % of control
Coagulation factor F II (F II; [2]): 100 % of control
Coagulation factor F II (F II; [3]): 100 % of control
Coagulation factor F II (F II; [4]): 88 % of control
Coagulation factor F II (F II; [5]): 88 % of control
Coagulation factor F X (F X; [1]): 96 % of control
Coagulation factor F X (F X; [2]): 87 % of control
Coagulation factor F X (F X; [3]): 87 % of control
Coagulation factor F X (F X; [4]): 86 % of control
Coagulation factor F X (F X; [5]): 86 % of control

From patent publication US4229435A, “Preparation of blood fraction” (priority 1978, dated 1980)
